Assay results as given in PubChem BioAssay (NCI).
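Five concentrations, 48 hours, 96-well plates. GI50: concentration for 50% inhibition of growth. Definition used: TGI = concentration required for complete inhibition of growth.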

Assays:
Assay in all cases: inhibition of tumour cell growth, NCI panel, 48 h
TK-10 renal = test system: TK-10 renal
SNB-75 CNS = test system: SNB-75 CNS
MDA-MB-435 = test system: MDA-MB-435
DU-145 prostate = test system: DU-145 prostate
OVCAR-5 ovarian = test system: OVCAR-5 ovarian
HOP-92 NSCLC = test system: HOP-92 NSCLC
SW-620 colon = test system: SW-620 colon
UACC-62 melanoma = test system: UACC-62 melanoma
A549 NSCLC = test system: A549 NSCLC
MOLT-4 leukemia = test system: MOLT-4 leukemia
SNB-19 CNS = test system: SNB-19 CNS
786-0 renal = test system: 786-0 renal
NCI/ADR-RES ovarian = test system: NCI/ADR-RES ovarian
OVCAR-4 ovarian = test system: OVCAR-4 ovarian
SN12C renal = test system: SN12C renal
U251 CNS = test system: U251 CNS
SK-OV-3 ovarian = test system: SK-OV-3 ovarian
HS 578T breast = test system: HS 578T breast
ACHN renal = test system: ACHN renal
HT29 colon = test system: HT29 colon
HL-60(TB) leukemia = test system: HL-60(TB) leukemia
OVCAR-8 ovarian = test system: OVCAR-8 ovarian
HCT-116 colon = test system: HCT-116 colon
MALME-3M melanoma = test system: MALME-3M melanoma
CCRF-CEM leukemia = test system: CCRF-CEM leukemia
PC-3 prostate = test system: PC-3 prostate
T-47D breast = test system: T-47D breast
NCI-H226 lung = test system: NCI-H226 lung
EKVX NSCLC = test system: EKVX NSCLC
RXF 393 renal = test system: RXF 393 renal
NCI-H460 lung = test system: NCI-H460 lung
NCI-H522 lung = test system: NCI-H522 lung
KM12 colon = test system: KM12 colon
IGROV1 ovarian = test system: IGROV1 ovarian
UO-31 renal = test system: UO-31 renal
UACC-257 melanoma = test system: UACC-257 melanoma
SF-539 CNS = test system: SF-539 CNS
LOX IMVI melanoma = test system: LOX IMVI melanoma
A498 renal = test system: A498 renal
HCC-2998 colon = test system: HCC-2998 colon
CAKI-1 renal = test system: CAKI-1 renal
MDA-MB-231 breast = test system: MDA-MB-231 breast
OVCAR-3 ovarian = test system: OVCAR-3 ovarian
SF-295 CNS = test system: SF-295 CNS
SK-MEL-5 melanoma = test system: SK-MEL-5 melanoma
COLO 205 colon = test system: COLO 205 colon
SK-MEL-2 melanoma = test system: SK-MEL-2 melanoma
BT-549 breast = test system: BT-549 breast
HOP-62 NSCLC = test system: HOP-62 NSCLC
MCF7 breast = test system: MCF7 breast
HCT-15 colon = test system: HCT-15 colon
SK-MEL-28 melanoma = test system: SK-MEL-28 melanoma
SF-268 CNS = test system: SF-268 CNS

Oc1cc(Cn2cnc3c(Cl)nc(Cl)nc32)ccc1C12CC3CC(CC(C3)C1)C2
GI50 (TK-10 renal): 19.5 µM | TGI (TK-10 renal): 38.8 µM | GI50 (SNB-75 CNS): 16.4 µM | TGI (SNB-75 CNS): 32.2 µM | GI50 (MDA-MB-435): 19.9 µM | TGI (MDA-MB-435): 48.6 µM | GI50 (DU-145 prostate): 16.2 µM | TGI (DU-145 prostate): 29.7 µM | GI50 (OVCAR-5 ovarian): 20.2 µM | TGI (OVCAR-5 ovarian): 45.7 µM | GI50 (HOP-92 NSCLC): 14.6 µM | TGI (HOP-92 NSCLC): 27.8 µM | GI50 (SW-620 colon): 24.6 µM | TGI (SW-620 colon): 56.8 µM | GI50 (UACC-62 melanoma): 16.8 µM | TGI (UACC-62 melanoma): 30.5 µM | GI50 (A549 NSCLC): 18.1 µM | TGI (A549 NSCLC): 33.2 µM | GI50 (MOLT-4 leukemia): 3.72 µM | TGI (MOLT-4 leukemia): 11.2 µM | GI50 (SNB-19 CNS): 17.6 µM | TGI (SNB-19 CNS): 31.4 µM | GI50 (786-0 renal): 18.5 µM | TGI (786-0 renal): 34.4 µM | GI50 (NCI/ADR-RES ovarian): 21.9 µM | TGI (NCI/ADR-RES ovarian): 57.2 µM | GI50 (OVCAR-4 ovarian): 16.4 µM | TGI (OVCAR-4 ovarian): 30 µM | GI50 (SN12C renal): 16.5 µM | TGI (SN12C renal): 32.2 µM | GI50 (U251 CNS): 16.6 µM | TGI (U251 CNS): 30.2 µM | GI50 (SK-OV-3 ovarian): 24.7 µM | TGI (SK-OV-3 ovarian): 55.1 µM | GI50 (HS 578T breast): 49.6 µM | TGI (HS 578T breast): > 100 µM | GI50 (ACHN renal): 17.9 µM | TGI (ACHN renal): 31.7 µM | GI50 (HT29 colon): 16 µM | TGI (HT29 colon): 29.5 µM | GI50 (HL-60(TB) leukemia): 4.36 µM | TGI (HL-60(TB) leukemia): 15.7 µM | GI50 (OVCAR-8 ovarian): 23.2 µM | TGI (OVCAR-8 ovarian): 58 µM | GI50 (HCT-116 colon): 14 µM | TGI (HCT-116 colon): 26.9 µM | GI50 (MALME-3M melanoma): 11.8 µM | TGI (MALME-3M melanoma): 27.8 µM | GI50 (CCRF-CEM leukemia): 2.17 µM | TGI (CCRF-CEM leukemia): 5.78 µM | GI50 (PC-3 prostate): 15.5 µM | TGI (PC-3 prostate): 28.9 µM | GI50 (T-47D breast): 21.8 µM | TGI (T-47D breast): 80.6 µM | GI50 (NCI-H226 lung): 23.3 µM | TGI (NCI-H226 lung): 63.7 µM | GI50 (EKVX NSCLC): 23.8 µM | TGI (EKVX NSCLC): 53.1 µM | GI50 (RXF 393 renal): 15.2 µM | TGI (RXF 393 renal): 29.3 µM | GI50 (NCI-H460 lung): 16.4 µM | TGI (NCI-H460 lung): 30.2 µM | GI50 (NCI-H522 lung): 15.2 µM | TGI (NCI-H522 lung): 28.5 µM | GI50 (KM12 colon): 17.5 µM | TGI (KM12 colon): 34.4 µM | GI50 (IGROV1 ovarian): 15.8 µM | TGI (IGROV1 ovarian): 30 µM | GI50 (UO-31 renal): 17.3 µM | TGI (UO-31 renal): 31.1 µM | GI50 (UACC-257 melanoma): 19 µM | TGI (UACC-257 melanoma): 39.2 µM | GI50 (SF-539 CNS): 23.6 µM | TGI (SF-539 CNS): 45.1 µM | GI50 (LOX IMVI melanoma): 4.12 µM | TGI (LOX IMVI melanoma): 18.6 µM | GI50 (A498 renal): > 100 µM | TGI (A498 renal): > 100 µM | GI50 (HCC-2998 colon): 16 µM | TGI (HCC-2998 colon): 30.4 µM | GI50 (CAKI-1 renal): 15.4 µM | TGI (CAKI-1 renal): 31.3 µM | GI50 (MDA-MB-231 breast): 15 µM | TGI (MDA-MB-231 breast): 30.3 µM | GI50 (OVCAR-3 ovarian): 18 µM | TGI (OVCAR-3 ovarian): 36.3 µM | GI50 (SF-295 CNS): 20.5 µM | TGI (SF-295 CNS): 47.9 µM | GI50 (SK-MEL-5 melanoma): 15 µM | TGI (SK-MEL-5 melanoma): 32 µM | GI50 (COLO 205 colon): 19.9 µM | TGI (COLO 205 colon): 37.2 µM | GI50 (SK-MEL-2 melanoma): 18.4 µM | TGI (SK-MEL-2 melanoma): 38 µM | GI50 (BT-549 breast): 17.5 µM | TGI (BT-549 breast): 34.4 µM | GI50 (HOP-62 NSCLC): 16.2 µM | TGI (HOP-62 NSCLC): 29.8 µM | GI50 (MCF7 breast): 15 µM | TGI (MCF7 breast): 28.3 µM | GI50 (HCT-15 colon): 16.3 µM | TGI (HCT-15 colon): 29.8 µM | GI50 (SK-MEL-28 melanoma): 16.9 µM | TGI (SK-MEL-28 melanoma): 31 µM | GI50 (SF-268 CNS): 14.4 µM | TGI (SF-268 CNS): 28 µM
